One data set has as its target T1, human D3-receptor (Homo sapiens, UniProt P35462).
T1 construct: host or cells: CCL 1,3 mouse fibroblasts
Briefly: D3 binding test (125iodosulpiride, membranes of CCL 1,3 mouse fibroblasts). The following applies: negative logarithm of the affinity constant for the D3 receptor; read-out: pKi (D3) (converted). The method, then: Cloned human D3-receptor-expressing CCL 1,3 mouse fibroblasts, obtainable from Res. Biochemicals Internat. One Strathmore Rd., Natick, Mass. 01760-2418 USA, were used for the binding studies.
The D3-expressing cells were multiplied in RPMI-1640 containing 10% fetal calf serum (GIBCO No. 041-32400 N); 100 U of penicillin/ml and 0.2% streptomycin (GIBO BRL, Gaithersburg, Md., USA). After 48 h, the cells were washed with PBS and incubated for 5 min with 0.05% trypsin-containing PBS. After that, the solution was neutralized with medium and the cells were collected by centrifuging at 300 g. In order to lyse the cells, the pellet was washed briefly with lysis buffer (5 mM Tris-HCl, pH 7.4, containing 10% glycerol) and after that incubated, at 4° C. for 30 min, at a concentration of 10^7 cells/ml of lysis buffer. The cells were centrifuged at 200 g for 10 min and the pellet was stored in liquid nitrogen.
For the D3-receptor binding test, the membranes were suspended in incubation buffer (50 mM Tris-HCl, pH 7.4, containing 120 mM NaCl, 5 mM KCl, 2 mM CaCl2, 2 mM MgCl2, 10 μM quinolinol, 0.1% ascorbic acid and 0.1% BSA), at a concentration of approx. 10^6 cells/250 μl of test mixture, and incubated at 30° C. with 0.1 nM ^125iodosulpiride in the presence and absence of the test substance. The nonspecific binding was determined using 10^−6 M spiperone.
After 60 min, the free radioligand and the bound radioligand were separated by filtering through GF/B glass fiber filters (Whatman, England) on a Skatron cell harvester (Skatron, Lier, Norway), and the filters were washed with ice-cold Tris-HCl buffer, pH 7.4. The radioactivity which had collected on the filters was quantified using a Packard 2200 CA liquid scintillation counter.
The Ki values were determined by means of nonlinear regression analysis using the LIGAND program.

Data set [1] deals with T2, human dopamine D2A receptors (Homo sapiens, UniProt P14416).
T2 construct: expressed in transfected cells; host or cells: HEK-293 cells
T2 sequence (P14416 whole entry): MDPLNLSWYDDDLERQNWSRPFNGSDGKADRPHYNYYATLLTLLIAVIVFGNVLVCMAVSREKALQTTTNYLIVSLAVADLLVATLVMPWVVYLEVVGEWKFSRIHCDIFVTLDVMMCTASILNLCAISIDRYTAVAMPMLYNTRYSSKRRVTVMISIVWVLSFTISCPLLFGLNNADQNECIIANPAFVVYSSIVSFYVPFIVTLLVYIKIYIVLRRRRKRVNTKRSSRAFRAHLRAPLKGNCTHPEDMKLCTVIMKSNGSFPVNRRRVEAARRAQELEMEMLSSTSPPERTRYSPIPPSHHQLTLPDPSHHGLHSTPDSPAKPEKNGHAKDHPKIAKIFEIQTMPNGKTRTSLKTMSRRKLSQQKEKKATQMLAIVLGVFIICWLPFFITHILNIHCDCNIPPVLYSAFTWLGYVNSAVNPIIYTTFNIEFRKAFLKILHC
Put plainly: D2 binding test (125I-spiperone, HEK-293 cells). To be noted: selectivity versus D2 receptor, Ki(D2)/Ki(D3). Here is the method:
All the media contained 100 units of penicillin […] and 100 μg/ml of streptomycin/ml. The cells were maintained at 37° C. in a moist atmosphere containing 5% CO2.
The cells were prepared for the binding studies by trypsinizing them (0.05% solution of trypsin) at room temperature for 3-5 minutes. After that, the cells were centrifuged at 250 g for 10 minutes and treated with lysis buffer (5 mM Tris-HCl, 10% glycerol, pH 7.4) at 4° C. for 30 minutes. After centrifuging at 250 g for 10 minutes, the residue was stored at −20° C. until used.
Low affinity state dopamine D2 receptor using ^125I-spiperone (81 TBq/mmol, Du Pont de Nemours, Dreieich)
The test mixtures (1 ml) consisted of 1×10^5 cells in incubation buffer (50 mM Tris, 120 mM NaCl, 5 mM KCl, 2 mM MgCl2 and 2 mM CaCl2, pH 7.4 with HCl) and […] ^125I-spiperone (total binding) or additionally 1 μM haloperidol (nonspecific binding) or test substance.
After the test mixtures had been incubated at 25° C. for 60 minutes, they were filtered through GM/B glass filters (Whatman, England) on a Skatron cell harvester (from Zinsser, Frankfurt), and the filters were washed with ice-cold 50 mM Tris-HCl buffer, pH 7.4. The radioactivity which had collected on the filters was quantified using a Packard 2200 CA liquid scintillation counter.
The results were evaluated as described in a).
The Ki values were determined by way of nonlinear regression analysis using the LIGAND program or by converting the IC50 values using the Cheng and Prusoff formula.

The results in this text go back to patent US6602867B1, “Triazole compounds with dopamine-D3-receptor affinity” (Abbott Laboratories, priority 1999, dated 2003).

Counter-ions that a name gives are not always drawn.

T1 sequence (P35462 whole entry): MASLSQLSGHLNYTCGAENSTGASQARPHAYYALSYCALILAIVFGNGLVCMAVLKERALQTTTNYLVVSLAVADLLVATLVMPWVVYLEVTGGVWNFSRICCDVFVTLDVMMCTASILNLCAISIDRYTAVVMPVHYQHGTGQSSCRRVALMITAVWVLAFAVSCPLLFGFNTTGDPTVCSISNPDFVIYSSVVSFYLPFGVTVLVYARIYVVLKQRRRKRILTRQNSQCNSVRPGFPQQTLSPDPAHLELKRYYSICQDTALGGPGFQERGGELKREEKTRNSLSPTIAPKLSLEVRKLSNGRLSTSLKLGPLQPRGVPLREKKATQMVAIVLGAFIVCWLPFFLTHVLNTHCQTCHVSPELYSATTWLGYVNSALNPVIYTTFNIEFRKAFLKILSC

A word on the melting point: it is the temperature of the solid-liquid transition. In turn, `COC(=O)c1ccc2c(c1)CN(CCCSc1nnc(-c3ccccc3)n1C)CC2.O=C(O)C(=O)O` gave a melting point of 160 to 163 °C.

Compound `Cn1c(SCCCN2CCc3ccc(S(=O)(=O)N4CCCC(C)(C)C4)cc3C2)nnc1-c1ccccc1` [Example 49, 7-[(3,3-Dimethylpiperidin-1-yl)sulfonyl]-2-{3-[(4-methyl-5-phenyl-4H-1,2,4-triazol-3-yl)sulfanyl]propyl}-1,2,3,4-tetrahydroisoquinoline] came in with a melting point of 75 to 76 °C. `Cl.Cn1c(SCCCN2CCc3ccc(C(F)(F)F)cc3C2)nnc1-c1ccccc1` returned a melting point of 205 to 207 °C. Still for that read-out and setting: with `Cn1c(SCCCN2CCc3ccc(S(=O)(=O)Nc4ccccc4)cc3C2)nnc1-c1cccnc1` [Example 25, 2-{3-[(4-Methyl-5-pyridin-3-yl-4H-1,2,4-triazol-3-yl)sulfanyl]-propyl}-N-phenyl-1,2,3,4-tetrahydroisoquinoline-7-sulfonamide] the figure was 58 to 61 °C; with `CCN(CC)CCOc1cccc2c1CCN(CCCSc1nnc(-c3ccccc3)n1C)C2.Cl.Cl`, 110 to 112 °C. Compound `Cn1c(SCCCN2CCc3ccc(NS(C)(=O)=O)cc3C2)nnc1-c1ccccc1` (as salt: HCl) [Example 84, N-[2-(3-{[4-Methyl-5-phenyl-4H-1,2,4-triazol-3-yl]sulfanyl}-propyl)-1,2,3,4-tetrahydroisoquinolin-7-yl]methansulfonamide] showed a melting point of 90 °C. In turn, `Cc1ncsc1-c1nnc(SCCCN2CCc3ccc(S(=O)(=O)Nc4ccccc4)cc3C2)n1C` [Example 26, 2-(3-{[4-Methyl-5-(4-methyl-1,3-thiazol-5-yl)-4H-1,2,4-triazol-3-yl]sulfanyl}propyl)-N-phenyl-1,2,3,4-tetrahydroisoquinoline-7-sulfonamide] registered a melting point of 77 to 81 °C. The compound `C=C(CSc1nnc(-c2ccccc2)n1C)CN1CCc2ccc([N+](=O)[O-])cc2C1.Cl` registered a melting point of 146 to 150 °C. Still for that read-out and setting: to `Cl.Cn1c(SCCCN2CCc3cc(C(F)(F)F)ccc3C2)nnc1-c1ccsc1` belongs 184 to 185 °C. The compound `Cc1ncsc1-c1nnc(SCCCN2CCc3ccc(S(=O)(=O)NCc4ccccc4)cc3C2)n1C` [Example 9, N-Benzyl-2-(3-{[4-methyl-5-(4-methyl-1,3-thiazol-5-yl)-4H-1,2,4-triazol-3-yl]sulfanyl}propyl)-1,2,3,4-tetrahydroisoquinoline-7-sulfonamide] yielded a melting point of 67 to 70 °C. As for `COc1ccc2c(c1)CCN(CCCSc1nnc(-c3ccccc3)n1C)C2` [Example 3, 2-{3-[(4-Methyl-5-phenyl-4H-1,2,4-triazol-3-yl)sulfanyl]propyl}-6-methoxy-1,2,3,4-tetrahydroisoquinoline], on human D3-receptor, the Ki was 9.55 nM. Further, the Selectivity in data set [1] stood at 78. Compound `Cn1c(SCCCN2CCc3ccc(S(=O)(=O)N4CCCCC4)cc3C2)nnc1-c1ccccc1` [Example 4, 2-{3-[(4-Methyl-5-phenyl-4H-1,2,4-triazol-3-yl)sulfanyl]propyl}-7-(piperidin-1-ylsulfonyl)-1,2,3,4-tetrahydroisoquinoline] yielded a melting point of 105 to 108 °C. Also, the Ki at human D3-receptor is 11 nM. This compound also showed a Selectivity in data set [1] of 67. In turn, `Cn1cccc1-c1nnc(SCCCN2CCc3ccc(S(=O)(=O)N4CCCCC4)cc3C2)n1C` [Example 35, 2-(3-{[4-Methyl-5-(1-methyl-1H-pyrrol-2-yl)-4H-1,2,4-triazol-3-yl]sulfanyl}propyl)-7-(piperidin-1-ylsulfonyl)-1,2,3,4-tetrahydroisoquinoline] had a melting point of 96 to 100 °C.

For the compound `COc1cccc2c1CCN(CCCSc1nnc(-c3ccccc3)n1C)C2` [Example 11, 5-Methoxy-2-{3-[(4-methyl-5-phenyl-4H-1,2,4-triazol-3-yl)-sulfanyl]propyl}-1,2,3,4-tetrahydroisoquinoline], the melting point fell in the range of 73 to 75 °C. The compound `Cn1c(SCCCN2CCc3ccc(C#N)cc3C2)nnc1-c1ccccc1` [Example 7, 2-{3-[(4-Methyl-5-phenyl-4H-1,2,4-triazol-3-yl)sulfanyl]propyl}-1,2,3,4-tetrahydroisoquinoline-7-carbonitrile] registered a melting point of 116 to 118 °C. The Ki at human D3-receptor is 4.27 nM. The Selectivity in data set [1] is 81. For the compound `Cn1c(SCCCN2CCc3cc(Cl)c(Cl)cc3C2)nnc1-c1ccccc1` [Example 28, 6,7-Dichloro-2-{3-[(4-methyl-5-phenyl-4H-1,2,4-triazol-3-yl)-sulfanyl]propyl}-1,2,3,4-tetrahydroisoquinoline], the melting point was 138 to 139 °C. `Cl.Cl.Cn1c(SCCCN2CCc3ccccc3C2)nnc1-c1cccnc1` came in with a melting point of 87 to 89 °C. `Cl.Cn1c(CCCCN2CCc3ccc(C#N)cc3C2)nnc1-c1ccccc1` yielded a melting point of 175 °C. `Cn1c(SCCCN2CCc3cc(Cl)ccc3C2)nnc1-c1ccsc1` [Example 39, 6-Chloro-2-{3-[(4-methyl-5-thien-3-yl-4H-1,2,4-triazol-3-yl)-sulfanyl]propyl}-1,2,3,4-tetrahydroisoquinoline] displayed a melting point of 99 to 100 °C. With `COc1ccc2c(c1)CCN(CCCSc1nnc(-c3ccc[nH]3)n1C)C2` [Example 2, 6-Methoxy-2-{3-[(4-methyl-5-pyrrol-2-yl-4H-1,2,4-triazol-3-yl)-sulfanyl]propyl}-1,2,3,4-tetrahydroisoquinoline], the melting point fell in the range of 179 to 181 °C. On the same count and under the same terms, with `CCN(CC)Cc1ccc2c(c1)CN(CCCSc1nnc(-c3ccccc3)n1C)CC2.Cl.Cl` the figure was 75 °C. For `Cn1c(SCCCN2CCc3ccc(S(=O)(=O)NCc4ccccc4)cc3C2)nnc1-c1cccnc1` (as salt: HCl) [Example 10, N-Benzyl-2-{3-[(4-methyl-5-pyridin-3-yl-4H-1,2,4-triazol-3-yl)-sulfanyl]propyl}-1,2,3,4-tetrahydroisoquinoline-7-sulfonamide], the melting point is 81 to 84 °C.
